# Results: patent US20120088731A1, “METHOD FOR TREATING PARKINSON'S DISEASE THROUGH REGULATING VDAC1 PROTEIN” (SNU R&DB FOUNDATION, priority 2010, published 2012)
# Tests used:
# Assay type in all cases: cell-based
# [1] = system: parkin null mouse mDA neurons; test: Synaptic activity (mEPSCs) of parkin null mouse mDA neurons; details: condition same as Experiment 6
# Method: (§1) Primary mouse DA neuron cultures were prepared from embryonic day (E) 13.5 mouse midbrain of parkin heterogeneous(+/−) and null(−/−) embryos [Neurobasal Media (Invitrogen)].
# It was examined whether PINK1-Parkin-VDAC1 pathway regulates the synaptic activity of the mDA neurons. To this end, the frequency and amplitude of miniature excitatory postsynaptic currents (mEPSCs) of parkin heterozygous and null mouse mDA neurons were measured.
# [2] = system: cultured rat hippocampal neurons transfected with parkin shRNA; test: Mitochondrial fragmentation in neurons transfected with parkin shRNA (immunocytochemistry); details: AA 48 hours, CsA 24 hours, Ru360 24 hours; for dendritic mitochondrial fragmentation induced by parkin knockdown (FIG. 4): VDAC1 shRNA 72 hours transfection, parkin shRNA at 13 DIV; for relative numbers of the neurons containing fragmented mitochondria (FIG. 5): parkin-knockdowned hippocampal neurons, VDAC1 shRNA 72 hours
# From the text: EGFP was used as a fluorescence marker to confirm the transfection of neuron with shRNA vector, and DsRed2-mito [pDsRed2-mito (Clontech)] was used as a fluorescence marker to observe mitochondria in neurons.
# [3] = system: cultured rat hippocampal neurons transfected with PINK1 shRNA; test: Mitochondrial fragmentation in neurons transfected with PINK1 shRNA (immunocytochemistry); details: AA 48 hours, CsA 24 hours, Ru360 24 hours; for dendritic mitochondrial fragmentation induced by knockdown of PINK1 (FIG. 7): VDAC1 shRNA 72 hours transfection, PINK1 shRNA at 13 DIV; for relative number of the neurons containing fragmented mitochondria (FIG. 8): PINK1-knockdowned hippocampal neurons, VDAC1 shRNA 72 hours
# [4] = system: parkin null mouse mDA neurons; test: Mitochondrial defects of parkin null mouse mDA neurons (immunocytochemistry); details: for level of the elongated mitochondria (FIG. 9): parkin null mDA neurons treated for 24 hours, 7 DIV; for relative numbers of the neurons containing fragmented mitochondria (FIG. 10): parkin null mouse mDA neurons, compared to heterozygous littermates
# Method: as §1
Molecule,frequency of mEPSCs (FIG. 12a) [1],dendritic mitochondrial fragmentation induced by parkin knockdown (FIG. 4) [2],relative numbers of the neurons containing fragmented mitochondria (FIG. 5) [2],dendritic mitochondrial fragmentation induced by knockdown of PINK1 (FIG. 7) [3],relative number of the neurons containing fragmented mitochondria (FIG. 8) [3],level of the elongated mitochondria (FIG. 9) [4],relative numbers of the neurons containing fragmented mitochondria (FIG. 10) [4]
"C[C@H]1[C@H](C)CC[C@]2(C(=O)O)CC[C@]3(C)C(=CC[C@@H]4[C@@]5(C)C[C@@H](O)[C@H](O)[C@@](C)(CO)[C@@H]5CC[C@]43C)[C@H]12 [AA, asiatic acid]",restored the frequency of mEPSCs up to the level of heterozygotic neurons,suppressed the dendritic mitochondrial fragmentation induced by parkin knockdown,prevents dendritic mitochondrial fragmentation in parkin-knockdowned hippocampal neurons and/or restores the fragmented mitochondria to normal elongated morphology,suppressed the dendritic mitochondrial fragmentation induced by knockdown of PINK1,prevents dendritic mitochondrial fragmentation in PINK1-knockdowned hippocampal neurons and/or restores the fragmented mitochondria to normal elongated morphology,showed a significantly restored level of the elongated mitochondria,significantly prevented mitochondrial fragmentation in parkin null mouse mDA neurons
Ru360,restored the frequency of mEPSCs up to the level of heterozygotic neurons,suppressed the dendritic mitochondrial fragmentation induced by parkin knockdown,prevents dendritic mitochondrial fragmentation in parkin-knockdowned hippocampal neurons and/or restores the fragmented mitochondria to normal elongated morphology,suppressed the dendritic mitochondrial fragmentation induced by knockdown of PINK1,prevents dendritic mitochondrial fragmentation in PINK1-knockdowned hippocampal neurons and/or restores the fragmented mitochondria to normal elongated morphology,showed a significantly restored level of the elongated mitochondria,significantly prevented mitochondrial fragmentation in parkin null mouse mDA neurons
cyclosporine A [CsA],,suppressed the dendritic mitochondrial fragmentation induced by parkin knockdown,,suppressed the dendritic mitochondrial fragmentation induced by knockdown of PINK1,,,
